Test results as given in patent US20170273985A1, “TRICYCLIC DERIVATIVE” (Sunovion Pharmaceuticals Inc., priority 2014, published 2017).

Experiments:
Assay type in all cases: biochemical
PDE1C = PDE1C (Homo sapiens, UniProt Q14123); assay: In vitro HTRF PDE1 inhibition assay (PDE1C)
Excerpt: (§1) An exemplary procedure for the in vitro Homogenous Time Resolved Fluorescence assay, which can be used to determine the inhibitory action of compounds of the invention toward PDE1 or its isoforms, follows. The HTRF PDE1 assay utilized the HTRF (Homogenous Time Resolved Fluorescence) technology, which is based on the competition between unlabeled cyclic nucleotide and cyclic nucleotide labeled with XL665 for the binding to cyclic nucleotide-specific antibody labeled with cryptate. The HTRF signal is thus inversely proportional to the concentration of cyclic nucleotide being measured. Since phosphodiesterases break down cyclic nucleotides the HTRF signal was used to determine PDE activity. The Cisbio cGMP HTRF assay kit (Cat no: 62GM2PEC) was utilized. Cyclic GMP was diluted to 200 nM in HTRF assay buffer (1 mM CaCl2, 10 mM MgCl2, 10 mM Tris-HCl, 0.1% BSA, pH 7.4). 10 μl of compound or DMSO was diluted in 200 nM cyclic GMP solution and added to wells of a 96 well white plate to give 100 nM cyclic GMP in 1% DMSO final concentration. PDE (1A3, 1B or IC) was diluted to 2× working concentration in HTRF assay buffer with 2 μg/ml calmodulin, and 10 μl was added to initiate the reaction. The plate was then incubated for 45 minutes at 37° C. d2-Labelled cyclic GMP and anti-cGMP cryptate were diluted in 50 mM phosphate buffer, 0.8 M KF, 1% Triton X100, 0.2% BSA, pH 7.0. Following incubation 10 μl d2-cGMP, then 10 μl anti cGMP cryptate were added to each well and the plate was incubated for 45 minutes at room temperature. The plate was then read on Perkin Elmer Victor at 2 different FRET readings ex/emm 340 nm/665 nm and 340 nm/615 nm. Compounds having an IC50 of <1 μM, are denoted as +++. Compounds having an IC50 of 1−10 μM, are denoted as ++. Compounds having an IC50 of 10-100 μM, are denoted as +.

PDE1A3 = PDE1A3 (Homo sapiens, UniProt P54750); assay: In vitro HTRF PDE1 inhibition assay (PDE1A3)
Excerpt: as §1

PDE1B = PDE1B (Homo sapiens, UniProt Q01064); assay: In vitro HTRF PDE1 inhibition assay (PDE1B)
Outline: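 PDE1A3, 1B or 1C with calmodulin hydrolysed 100 nM cGMP in Tris buffer pH 7.4 (1 mM CaCl2, 10 mM MgCl2, 0.1% BSA, 1% DMSO) for 45 min at 37 °C. Remaining cGMP was measured by HTRF competition (d2-cGMP, anti-cGMP cryptate; 665/615 nm). IC50 is reported in bins: <1, 1-10 and 10-100 μM.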

CC1CN(CC2CCOCC2)c2nn3c(C(C)C)ncc3c(=O)n2C1 (stereo not drawn) [Example 64]
IC50 (PDE1C; Table 24): < 1000 nM | IC50 (PDE1A3; Table 23): < 1000 nM | IC50 (PDE1B; Table 22): < 1000 nM

CN1c2nn3c(C4CCOCC4)ncc3c(=O)n2CCC1c1ccc(Cl)cc1 (stereo not drawn) [Example 69]
IC50 (PDE1C; Table 24): 1000 to 10000 nM | IC50 (PDE1A3; Table 23): < 1000 nM | IC50 (PDE1B; Table 22): < 1000 nM

CCN1c2nn3c(C4CCOCC4)ncc3c(=O)n2CC[C@@H]1c1ccc(Cl)cc1 [Example 70]
IC50 (PDE1C; Table 24): 1000 to 10000 nM | IC50 (PDE1A3; Table 23): < 1000 nM | IC50 (PDE1B; Table 22): < 1000 nM

CC(C)n1ncc2c(=O)n3c(nc21)N(Cc1ccc(-c2ccccn2)cc1)CC3 [Example 75]
IC50 (PDE1C; Table 24): < 1000 nM | IC50 (PDE1A3; Table 23): < 1000 nM | IC50 (PDE1B; Table 22): < 1000 nM

CC(C)n1ncc2c(=O)n3c(nc21)N(CC1CCOCC1)CCC3 [Example 78]
IC50 (PDE1C; Table 24): 1000 to 10000 nM | IC50 (PDE1A3; Table 23): < 1000 nM | IC50 (PDE1B; Table 22): < 1000 nM

CC(C)n1ncc2c(=O)n3c(nc21)N(Cc1ccc(C#N)cc1)CCC3 [Example 79]
IC50 (PDE1C; Table 24): < 1000 nM | IC50 (PDE1A3; Table 23): < 1000 nM | IC50 (PDE1B; Table 22): < 1000 nM

CC(C)n1ncc2c(=O)n3c(nc21)N(C)C(c1ccc(Cl)cc1)CC3 (stereo not drawn) [Example 81]
IC50 (PDE1C; Table 24): 1000 to 10000 nM | IC50 (PDE1A3; Table 23): < 1000 nM | IC50 (PDE1B; Table 22): < 1000 nM

CC(C)c1ncc2c(=O)n3c(nn12)N(CCCCCCO)CCC3 [Example 106]
IC50 (PDE1C; Table 24): < 1000 nM | IC50 (PDE1A3; Table 23): < 1000 nM | IC50 (PDE1B; Table 22): < 1000 nM

CC(C)c1ncc2c(=O)n3c(nn12)N(CCCc1ccccn1)CCC3 [Example 120, 9-Isopropyl-1-[3-(2-pyridinyl)propyl]-1,2,3,4-tetrahydro-6H-imidazo[5,1-f]pyrimido[2,1-c][1,2,4]triazin-6-one]
IC50 (PDE1C; Table 24): < 1000 nM | IC50 (PDE1A3; Table 23): < 1000 nM | IC50 (PDE1B; Table 22): < 1000 nM

O=c1c2cnc(C3CCCC3)n2nc2n1CCCC2 [Example 137]
IC50 (PDE1C; Table 24): 1000 to 10000 nM | IC50 (PDE1A3; Table 23): 1000 to 10000 nM | IC50 (PDE1B; Table 22): < 1000 nM

O=c1c2cnc(C3CCOCC3)n2nc2n1CCN2CC1CCCCC1 [Example 153]
IC50 (PDE1C; Table 27): < 1000 nM | IC50 (PDE1A3; Table 26): < 1000 nM | IC50 (PDE1B; Table 25): < 1000 nM

O=c1c2cnc(C3CCOCC3)n2nc2n1CCN2Cc1ccc(F)cc1 [Example 154]
IC50 (PDE1C; Table 27): < 1000 nM | IC50 (PDE1A3; Table 26): < 1000 nM | IC50 (PDE1B; Table 25): < 1000 nM

O=c1c2cnc(C3CCOCC3)n2nc2n1CCN2Cc1cccc(F)c1 [Example 155]
IC50 (PDE1C; Table 27): < 1000 nM | IC50 (PDE1A3; Table 26): < 1000 nM | IC50 (PDE1B; Table 25): < 1000 nM

O=c1c2cnc(C3CCOCC3)n2nc2n1CCN2Cc1ccccc1F [Example 156]
IC50 (PDE1C; Table 27): < 1000 nM | IC50 (PDE1A3; Table 26): < 1000 nM | IC50 (PDE1B; Table 25): < 1000 nM

O=c1c2cnc(C3CCOCC3)n2nc2n1CCN2CC1(C(F)(F)F)CC1 [Example 159]
IC50 (PDE1C; Table 27): < 1000 nM | IC50 (PDE1A3; Table 26): < 1000 nM | IC50 (PDE1B; Table 25): < 1000 nM

O=c1c2cnc(C3CCOCC3)n2nc2n1CCN2CCC1(C(F)(F)F)CC1 [Example 160]
IC50 (PDE1C; Table 27): < 1000 nM | IC50 (PDE1A3; Table 26): < 1000 nM | IC50 (PDE1B; Table 25): < 1000 nM

O=c1c2cnc(C3CCOCC3)n2nc2n1CCN2CC1CCC(F)(F)CC1 [Example 171]
IC50 (PDE1C; Table 27): < 1000 nM | IC50 (PDE1A3; Table 26): < 1000 nM | IC50 (PDE1B; Table 25): < 1000 nM

CC(C)CCN1CCn2c1nn1c(C3CCOCC3)ncc1c2=O [Example 172]
IC50 (PDE1C; Table 27): < 1000 nM | IC50 (PDE1A3; Table 26): < 1000 nM | IC50 (PDE1B; Table 25): < 1000 nM

O=c1c2cnc(C3CCOCC3)n2nc2n1CCCN2CC1(C(F)(F)F)CC1 [Example 187]
IC50 (PDE1C; Table 27): < 1000 nM | IC50 (PDE1A3; Table 26): < 1000 nM | IC50 (PDE1B; Table 25): < 1000 nM

O=c1c2cnc(C3CCOCC3)n2nc2n1CCCN2CC1CCC(F)(F)CC1 [Example 190]
IC50 (PDE1C; Table 27): < 1000 nM | IC50 (PDE1A3; Table 26): < 1000 nM | IC50 (PDE1B; Table 25): < 1000 nM

CO[C@H]1CC[C@H](CN2CCCn3c2nn2c(C4CCOCC4)ncc2c3=O)CC1 [Example 191]
IC50 (PDE1C; Table 27): < 1000 nM | IC50 (PDE1A3; Table 26): < 1000 nM | IC50 (PDE1B; Table 25): < 1000 nM

CCO[C@H]1CC[C@H](CN2CCCn3c2nn2c(C4CCOCC4)ncc2c3=O)CC1 [Example 193]
IC50 (PDE1C; Table 27): < 1000 nM | IC50 (PDE1A3; Table 26): < 1000 nM | IC50 (PDE1B; Table 25): < 1000 nM

CC(C)c1ncc2c(=O)n3c(nn12)N(CC1CCOCC1)CC1(CC1)C3 [Example 200]
IC50 (PDE1C; Table 27): < 1000 nM | IC50 (PDE1A3; Table 26): < 1000 nM | IC50 (PDE1B; Table 25): < 1000 nM

CC(C)c1ncc2c(=O)n3c(nn12)N(CC1CCOCC1)C[C@@H](C)C3 [Example 232]
IC50 (PDE1C; Table 27): < 1000 nM | IC50 (PDE1A3; Table 26): < 1000 nM | IC50 (PDE1B; Table 25): < 1000 nM

CC(C)c1ncc2c(=O)n3c(nn12)N(CC1CCOCC1)C[C@H](C)C3 [Example 233]
IC50 (PDE1C; Table 27): < 1000 nM | IC50 (PDE1A3; Table 26): < 1000 nM | IC50 (PDE1B; Table 25): < 1000 nM
